Experimental data as given in ChEMBL document CHEMBL1130578, “Solid-phase synthesis of a N-carboxyalkyl tripeptide combinatorial library” (Bioorg Med Chem Lett, 1997).

Each compound was assayed against Stromelysin-1 (Homo sapiens, UniProt P08254) (assay: Inhibition of matrix metalloprotease-3).
Chain of Stromelysin-1 (P08254 whole entry): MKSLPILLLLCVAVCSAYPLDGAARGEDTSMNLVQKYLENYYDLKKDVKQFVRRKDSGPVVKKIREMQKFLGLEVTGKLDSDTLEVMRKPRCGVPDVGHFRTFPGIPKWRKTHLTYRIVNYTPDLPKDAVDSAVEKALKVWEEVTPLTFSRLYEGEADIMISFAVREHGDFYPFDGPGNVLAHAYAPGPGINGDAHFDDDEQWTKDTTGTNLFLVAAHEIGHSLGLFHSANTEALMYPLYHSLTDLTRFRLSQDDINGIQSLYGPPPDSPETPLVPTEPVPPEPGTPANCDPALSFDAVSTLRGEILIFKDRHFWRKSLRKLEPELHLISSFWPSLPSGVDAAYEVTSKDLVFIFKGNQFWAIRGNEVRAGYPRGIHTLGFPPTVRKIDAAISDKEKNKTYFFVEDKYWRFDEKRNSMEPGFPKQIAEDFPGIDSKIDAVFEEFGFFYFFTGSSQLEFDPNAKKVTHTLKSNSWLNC

Structure (SMILES) | IC50 [nM]
CCCCCCC(N[C@@H](CCc1ccccc1)C(=O)N[C@@H](CCCN=C(N)N)C(=O)N[C@@H](Cc1cc2ccccc2[nH]1)C(=O)OC)C(=O)O (stereo not given in full) | 900
CCCCCCC(N[C@@H](CCc1ccccc1)C(=O)N[C@@H](CCCN=C(N)N)C(=O)N[C@@H](CCCC)C(=O)OC)C(=O)O (stereo not given in full) | 900
CCCCCCC(N[C@@H](CCc1ccccc1)C(=O)N[C@@H](CCCN=C(N)N)C(=O)N[C@@H](CCc1ccccc1)C(=O)OC)C(=O)O (stereo not given in full) | 800
CCCCCCC(N[C@@H](CCc1ccccc1)C(=O)N[C@@H](CCCN=C(N)N)C(=O)N[C@@H](CC(C)C)C(=O)OC)C(=O)O (stereo not given in full) | 400
CCCCCCC(N[C@@H](CCc1ccccc1)C(=O)N[C@@H](CCCN=C(N)N)C(=O)N[C@@H](CCC(N)=O)C(=O)OC)C(=O)O (stereo not given in full) | 900
